The supplement of paper PMC11451515

System: SEM cells
Test: cell viability relative to DMSO control; higher = less cytotoxic
Conditions: 48 h
How it was run: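 Three leukemia lines were tested: NOMO1 and SEM at 500 cells/well and P12-Ichikawa at 1000 cells/well. Each was adapted for at least four passages in each medium and seeded in 5 μl in 1536-well plates, and library compounds in DMSO were pin-dosed from 47 μM to 0.79 nM in 11 threefold steps. After 48 h at 37°C, CellTiter-Glo One luminescence was read. Viability is a percentage relative to DMSO wells on each plate, with cell-free wells as background.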

[1] = HPLM + 10% dialyzed FBS, 0.000781 µM
[2] = HPLM + 10% dialyzed FBS, 0.00234 µM
[3] = HPLM + 10% dialyzed FBS, 0.00702 µM
[4] = HPLM + 10% dialyzed FBS, 0.0211 µM
[5] = HPLM + 10% dialyzed FBS, 0.0632 µM
[6] = HPLM + 10% dialyzed FBS, 0.19 µM
[7] = HPLM + 10% dialyzed FBS, 0.569 µM
[8] = HPLM + 10% dialyzed FBS, 1.71 µM
[9] = HPLM + 10% dialyzed FBS, 5.12 µM
[10] = HPLM + 10% dialyzed FBS, 15.4 µM
[11] = HPLM + 10% dialyzed FBS, 46.1 µM
[12] = RPMI 5 mM glucose + 10% FBS, 0.000781 µM
[13] = RPMI 5 mM glucose + 10% FBS, 0.00234 µM
[14] = RPMI 5 mM glucose + 10% FBS, 0.00702 µM
[15] = RPMI 5 mM glucose + 10% FBS, 0.0211 µM
[16] = RPMI 5 mM glucose + 10% FBS, 0.0632 µM
[17] = RPMI 5 mM glucose + 10% FBS, 0.19 µM
[18] = RPMI 5 mM glucose + 10% FBS, 0.569 µM
[19] = RPMI 5 mM glucose + 10% FBS, 1.71 µM
[20] = RPMI 5 mM glucose + 10% FBS, 5.12 µM
[21] = RPMI 5 mM glucose + 10% FBS, 15.4 µM
[22] = RPMI 5 mM glucose + 10% FBS, 46.1 µM
[23] = RPMI 5 mM glucose + 10% dialyzed FBS, 0.000781 µM
[24] = RPMI 5 mM glucose + 10% dialyzed FBS, 0.00234 µM
[25] = RPMI 5 mM glucose + 10% dialyzed FBS, 0.00702 µM
[26] = RPMI 5 mM glucose + 10% dialyzed FBS, 0.0211 µM
[27] = RPMI 5 mM glucose + 10% dialyzed FBS, 0.0632 µM
[28] = RPMI 5 mM glucose + 10% dialyzed FBS, 0.19 µM
[29] = RPMI 5 mM glucose + 10% dialyzed FBS, 0.569 µM
[30] = RPMI 5 mM glucose + 10% dialyzed FBS, 1.71 µM
[31] = RPMI 5 mM glucose + 10% dialyzed FBS, 5.12 µM
[32] = RPMI 5 mM glucose + 10% dialyzed FBS, 15.4 µM
[33] = RPMI 5 mM glucose + 10% dialyzed FBS, 46.1 µM

Row | Compound | cell viability [1] | cell viability [2] | cell viability [3] | cell viability [4] | cell viability [5] | cell viability [6] | cell viability [7] | cell viability [8] | cell viability [9] | cell viability [10] | cell viability [11] | cell viability [12] | cell viability [13] | cell viability [14] | cell viability [15] | cell viability [16] | cell viability [17] | cell viability [18] | cell viability [19] | cell viability [20] | cell viability [21] | cell viability [22] | cell viability [23] | cell viability [24] | cell viability [25] | cell viability [26] | cell viability [27] | cell viability [28] | cell viability [29] | cell viability [30] | cell viability [31] | cell viability [32] | cell viability [33]
1 | O=C1\C=C/C[C@@H]2[C@H]3CCCN4CCC[C@@H](CN12)[C@@H]34 | 109% | 113% | 111% | 112% | 99.6% | 105% | 117% | 112% | 93.4% | 102% | 101% | 90.8% | 77.1% | 103% | 108% | 101% | 59.3% | 99.5% | 107% | 87.1% | 88.6% | 95.7% | 89.1% | 108% | 101% | 115% | 108% | 81.8% | 106% | 118% | 105% | 98.9% | 92.2%
2 | CCNC(=O)c1cc2c(-c3cc(OCCN4CCCC4)c(Cl)cc3Cl)nc(N)nc2s1 | 114% | 112% | 112% | 101% | 104% | 114% | 101% | 95.2% | 32.2% | 20.1% | 19.4% | 103% | 108% | 117% | 96.6% | 112% | 112% | 112% | 86.9% | 31.9% | 21.8% | 18.7% | 96.2% | 98.6% | 92.2% | 110% | 98.7% | 112% | 98% | 68.3% | 30.3% | 19.4% | 19.1%
3 | O=C1Nc2ccc(Cl)cc2[C@@](C#CC2CC2)(C(F)(F)F)O1 | 65.1% | 74% | 86.3% | 95% | 86% | 88.4% | 88.8% | 80.2% | 88.9% | 96% | 93.4% | 71.8% | 69.8% | 82.2% | 84.9% | 89.6% | 84.6% | 84.4% | 87.8% | 85.9% | 91.6% | 63.7% | 62.1% | 70% | 89.5% | 81.2% | 82.7% | 78.9% | 85.6% | 81.5% | 81.8% | 84.8% | 54.7%
4 | Cc1c(Cn2c(C)nc3c(C(=O)O)cc(N4CCOCC4)cc32)cccc1C(F)(F)F | 84.5% | 101% | 109% | 111% | 101% | 97.1% | 115% | 109% | 103% | 117% | 103% | 93.2% | 115% | 102% | 106% | 103% | 112% | 119% | 114% | 107% | 89.1% | 88.5% | 94.1% | 105% | 100% | 109% | 112% | 95.5% | 103% | 95.5% | 90.1% | 92.3% | 79.8%
5 | CC(C)C[C@H](NC(=O)[C@@H](NC(=O)c1cccc(-c2ccccc2)n1)[C@@H](C)O)B(O)O | 98.1% | 110% | 108% | 31.3% | 9.24% | 8.75% | 8.47% | 8.47% | 7.07% | 4.73% | 3.46% | 93% | 107% | 99% | 18.2% | 9.27% | 9.18% | 8.81% | 8.15% | 6.37% | 4.03% | 3.46% | 87.3% | 100% | 95.9% | 28.4% | 9.88% | 9.98% | 9.77% | 9.35% | 6.09% | 3.83% | 3.48%
6 | O=C(/C=C/c1cccc([S+](=O)([O-])Nc2ccccc2)c1)NO | 113% | 119% | 122% | 129% | 124% | 75.6% | 58.4% | 26.4% | 12.2% | 8.53% | 8.48% | 106% | 150% | 124% | 120% | 118% | 81.1% | 53% | 26.7% | 10.6% | 8.84% | 8.83% | 95.9% | 123% | 120% | 113% | 128% | 83.6% | 52% | 20.9% | 9.84% | 8.65% | 8.77%
7 | CCCCCCCc1ccc(CCc2cccc(O)c2C(=O)O)cc1 |  |  |  |  |  |  |  |  |  |  |  | 82.3% | 113% | 126% | 128% | 120% | 112% | 111% | 122% | 105% | 107% | 101% | 75.5% | 121% | 135% | 130% | 119% | 111% | 134% | 119% | 110% | 125% | 107%
8 | O=C1Nc2cc(Br)ccc2/C1=C1/Nc2ccccc2/C1=N\O | 109% | 102% | 110% | 100% | 108% | 78.5% | 66.5% | 31.5% | 4.61% | 3.01% | 1.68% | 87.2% | 113% | 110% | 95.3% | 98.4% | 98.8% | 60% | 21.3% | 2.47% | 1.39% | 0.712% | 111% | 102% | 89.9% | 99.4% | 90.5% | 69.9% | 64.9% | 34.8% | 4.53% | 2.51% | 1.3%
9 | CC(C)Oc1cc(Nc2nc(N[C@@H](C)c3ccc(F)cn3)ncc2Cl)n[nH]1 | 106% | 103% | 90.3% | 102% | 96.3% | 80.5% | 50.5% | 34.6% | 26% | 22.1% | 25.3% | 109% | 83.1% | 96% | 95.6% | 108% | 81.2% | 60.3% | 21.9% | 19.2% | 14.8% | 16.2% | 84.9% | 98% | 100% | 114% | 83% | 67.9% | 43.4% | 26.3% | 17.9% | 14.9% | 16.2%
10 | C=CC1=C(C(=O)O)N2C(=O)[C@@H](NC(=O)/C(=N\O)c3csc(N)n3)[C@H]2SC1 | 80.6% | 81.9% | 20.4% | 86.1% | 87.3% | 98.9% | 89.8% | 91.1% | 83.1% | 93.4% | 95.7% | 87.5% | 107% | 10.3% | 104% | 96.7% | 109% | 102% | 108% | 121% | 98.7% | 106% | 83.1% | 86.6% | 27.4% | 108% | 94.5% | 107% | 97.1% | 101% | 116% | 112% | 101%
